Data on 33 compounds can be found in US9670142B2, “1,3-diaminocyclopentane carboxamide derivatives” (Merck Patent GmbH, priority 2013, dated 2017).

Some results are limits rather than exact numbers.

This experiment deals with human fatty acid synthase FASN (Homo sapiens (Human), UniProt P49327). The experiment is described as follows: Biochemical activity testing of human fatty acid synthase FASN (NADPH fluorescence intensity enzyme assay). The following applies: human recombinant full-length fatty acid synthase. The procedure, abridged:
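In-house Sf9-expressed full-length enzyme (3 μL of 40 nM) in 50 mM potassium phosphate pH 7.0 with glutathione, BSA and Tween-20, plus NADPH (2 μL of 200 μM), preincubated ≥15 min with compound (10 concentrations from 30 μM final, 1% DMSO). Acetyl-CoA/malonyl-CoA added; NADPH fluorescence (ex 340/em 460 nm) read before and after 30 min at room temperature, difference used for IC50.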

human fatty acid synthase FASN, sequence (P49327 whole entry): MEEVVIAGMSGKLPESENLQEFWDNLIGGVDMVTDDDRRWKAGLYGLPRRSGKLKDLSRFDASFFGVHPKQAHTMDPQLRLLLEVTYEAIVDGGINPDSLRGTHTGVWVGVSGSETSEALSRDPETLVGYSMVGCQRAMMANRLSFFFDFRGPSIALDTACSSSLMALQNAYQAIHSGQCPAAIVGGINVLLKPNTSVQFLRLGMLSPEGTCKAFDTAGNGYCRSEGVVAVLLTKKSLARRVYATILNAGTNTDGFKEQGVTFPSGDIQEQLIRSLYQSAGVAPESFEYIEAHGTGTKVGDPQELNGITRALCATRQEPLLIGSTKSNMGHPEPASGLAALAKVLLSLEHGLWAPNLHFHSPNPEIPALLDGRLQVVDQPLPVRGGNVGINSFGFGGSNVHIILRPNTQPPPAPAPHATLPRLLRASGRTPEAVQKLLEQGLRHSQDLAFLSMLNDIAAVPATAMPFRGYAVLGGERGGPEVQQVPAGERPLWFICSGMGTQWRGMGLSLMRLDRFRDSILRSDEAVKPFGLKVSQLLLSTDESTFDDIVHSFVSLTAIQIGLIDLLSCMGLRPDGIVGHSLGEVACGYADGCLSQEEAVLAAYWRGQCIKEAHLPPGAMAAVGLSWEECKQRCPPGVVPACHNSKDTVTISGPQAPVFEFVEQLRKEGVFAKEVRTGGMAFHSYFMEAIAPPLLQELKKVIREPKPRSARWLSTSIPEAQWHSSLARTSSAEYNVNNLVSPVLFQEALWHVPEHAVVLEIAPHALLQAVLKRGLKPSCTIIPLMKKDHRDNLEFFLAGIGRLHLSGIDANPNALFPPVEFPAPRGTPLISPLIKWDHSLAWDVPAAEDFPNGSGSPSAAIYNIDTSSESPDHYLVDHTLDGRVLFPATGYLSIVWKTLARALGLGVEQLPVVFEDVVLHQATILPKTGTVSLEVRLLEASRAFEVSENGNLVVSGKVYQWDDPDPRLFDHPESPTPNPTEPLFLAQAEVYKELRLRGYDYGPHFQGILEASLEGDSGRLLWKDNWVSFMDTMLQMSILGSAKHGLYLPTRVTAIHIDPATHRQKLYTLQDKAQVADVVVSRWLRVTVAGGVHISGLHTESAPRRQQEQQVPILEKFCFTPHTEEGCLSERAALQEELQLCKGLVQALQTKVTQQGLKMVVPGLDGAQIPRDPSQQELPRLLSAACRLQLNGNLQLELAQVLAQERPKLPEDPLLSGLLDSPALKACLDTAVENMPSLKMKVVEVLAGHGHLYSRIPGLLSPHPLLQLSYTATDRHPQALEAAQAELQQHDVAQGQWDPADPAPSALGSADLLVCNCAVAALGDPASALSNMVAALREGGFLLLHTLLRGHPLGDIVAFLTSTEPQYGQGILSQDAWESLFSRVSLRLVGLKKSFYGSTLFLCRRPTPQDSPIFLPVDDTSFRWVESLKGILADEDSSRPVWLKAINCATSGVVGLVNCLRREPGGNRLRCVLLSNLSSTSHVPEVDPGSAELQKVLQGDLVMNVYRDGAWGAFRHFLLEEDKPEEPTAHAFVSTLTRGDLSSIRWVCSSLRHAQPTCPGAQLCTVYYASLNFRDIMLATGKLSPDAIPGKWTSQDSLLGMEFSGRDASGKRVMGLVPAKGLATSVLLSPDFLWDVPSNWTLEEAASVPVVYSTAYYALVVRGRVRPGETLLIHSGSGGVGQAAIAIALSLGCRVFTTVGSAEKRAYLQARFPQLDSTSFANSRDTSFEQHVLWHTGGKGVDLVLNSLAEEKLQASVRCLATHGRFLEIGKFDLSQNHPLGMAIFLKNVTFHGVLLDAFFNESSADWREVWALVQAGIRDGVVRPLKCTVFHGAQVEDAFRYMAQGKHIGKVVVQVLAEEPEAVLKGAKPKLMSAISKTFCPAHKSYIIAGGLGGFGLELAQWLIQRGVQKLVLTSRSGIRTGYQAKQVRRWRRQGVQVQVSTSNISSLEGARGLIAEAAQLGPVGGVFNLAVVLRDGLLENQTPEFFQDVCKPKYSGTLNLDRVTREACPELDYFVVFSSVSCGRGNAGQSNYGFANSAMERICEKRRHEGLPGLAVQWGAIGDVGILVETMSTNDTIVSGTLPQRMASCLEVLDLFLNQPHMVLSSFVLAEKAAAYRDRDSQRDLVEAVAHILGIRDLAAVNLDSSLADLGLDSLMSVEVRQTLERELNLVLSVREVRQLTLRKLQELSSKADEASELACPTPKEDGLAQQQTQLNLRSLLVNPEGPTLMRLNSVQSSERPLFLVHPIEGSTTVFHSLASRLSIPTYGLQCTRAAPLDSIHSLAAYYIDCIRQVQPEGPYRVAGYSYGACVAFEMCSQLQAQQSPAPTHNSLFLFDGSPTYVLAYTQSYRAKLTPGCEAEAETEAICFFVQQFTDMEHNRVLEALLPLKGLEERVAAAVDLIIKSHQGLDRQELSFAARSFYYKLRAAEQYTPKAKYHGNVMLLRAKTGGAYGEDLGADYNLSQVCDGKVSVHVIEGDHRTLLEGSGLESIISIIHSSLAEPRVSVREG

On to `CCC(=O)N[C@H]1CC[C@@H](N(C)C(=O)c2cnc(-c3ccc4[nH]ccc4c3)cn2)C1` [Compound A132, 5-(1H-indol-5-yl)-pyrazine-2-carboxylic acid methyl-((1R,3S)-3-propionylamino-cyclopentyl)-amide], for which the half-maximal inhibitory concentration (IC50) was less than 300 nM. Next, `CCC(=O)N[C@H]1CC[C@@H](N(C)C(=O)c2ccc(-c3ccc4c(ccn4C)c3)cn2)C1` [Compound A110, 5-(1-methyl-1H-indol-5-yl)-pyridine-2-carboxylic acid methyl-((1R,3S)-3-propionylamino-cyclopentyl)-amide]: less than 300 nM; `CCC(=O)N[C@H]1CC[C@@H](N(C)C(=O)c2ccc(-c3ccc(C)cc3)cc2)C1` [Compound A73, 4′-methyl-biphenyl-4-carboxylic acid methyl-((1R,3S)-3-propionylamino-cyclopentyl)-amide]: less than 300 nM.

Consider `CN(C(=O)c1cnc(-c2nc3ccc(Cl)cc3o2)cn1)[C@@H]1CC[C@H](NC(=O)[C@@H]2CCCO2)C1` [Compound A159, 5-(6-chloro-benzoxazol-2-yl)-pyrazine-2-carboxylic acid methyl-{(1R,3S)-3-[((S)-tetrahydro-furan-2-carbonyl)-amino]-cyclopentyl}-amide], for which the concentration for half-maximal inhibition (IC50) was less than 300 nM. `CCC(F)(F)C(=O)N[C@H]1CC[C@@H](N(C)C(=O)c2ccc(-c3nc4ccccc4o3)cc2)C1` [Compound A27, 4-benzoxazol-2-yl-N-[(1R,3S)-3-(2,2-difluoro-butyrylamino)-cyclopentyl]-N-methyl-benzamide]: the 50% inhibitory concentration (IC50) is less than 300 nM. The same measure for `CCC(=O)N[C@H]1CC[C@@H](N(C)C(=O)c2ccc(-c3ccc(C)c(F)c3)cc2)C1` [Compound A66, 3′-fluoro-4′-methyl-biphenyl-4-carboxylic acid methyl-((1R,3S)-3-propionylamino-cyclopentyl)-amide]: less than 300 nM; for `CCC(=O)N[C@H]1CC[C@@H](N(C)C(=O)c2ccc(-c3ccc4c(ccn4C)c3)c(C)c2)C1` [Compound A114, 3,N-dimethyl-4-(1-methyl-1H-indol-5-yl)-N-((1R,3S)-3-propionylamino-cyclopentyl)-benzamide]: less than 300 nM. The same measure for `CN(C(=O)c1ccc(-c2nc3ccccc3o2)cc1)[C@@H]1CC[C@H](NC(=O)CC2CCCC2)C1` [Compound A44]: less than 300 nM; for `CCC(=O)N[C@H]1CC[C@@H](N(C)C(=O)c2ccc(-c3ccc(C(F)(F)F)cc3)cc2)C1` [Compound A64, 4′-trifluoromethyl-biphenyl-4-carboxylic acid methyl-((1R,3S)-3-propionylamino-cyclopentyl)-amide]: less than 300 nM. Next, `CC(C)C(=O)N[C@H]1CC[C@@H](N(C)C(=O)c2ccc(-c3nc4ccccc4o3)cc2)C1` [Compound A17, 4-benzoxazol-2-yl-N-((1R,3S)-3-isobutyrylamino-cyclopentyl)-N-methyl-benzamide]: less than 300 nM. Take `CCC(=O)N[C@H]1CC[C@@H](N(C)C(=O)c2ccc(-c3ccc4[nH]cnc4c3)cc2)C1` [Compound A76, 4-(1H-benzimidazol-5-yl)-N-methyl-N-((1R,3S)-3-propionylamino-cyclopentyl)-benzamide]: the IC50 is less than 300 nM. Next, `CCC(=O)N[C@H]1CC[C@@H](N(C)C(=O)c2ccc(-c3cnc4ccccc4c3)cc2)C1` [Compound A72, N-methyl-N-((1R,3S)-3-propionylamino-cyclopentyl)-4-quinolin-3-yl-benzamide]: less than 300 nM; `CCC(=O)N[C@H]1CC[C@@H](N(C)C(=O)c2ccc(-c3ccc4[nH]ccc4c3)nc2)C1` [Compound A117, 6-(1H-indol-5-yl)-N-methyl-N-((1R,3S)-3-propionylamino-cyclopentyl)-nicotinamide]: less than 300 nM; `CCC(=O)N[C@H]1CC[C@@H](N(C)C(=O)c2ccc(C#Cc3ccncc3)cc2)C1` [Compound A15, N-methyl-N-((1R,3S)-3-propionylamino-cyclopentyl)-4-pyridin-4-ylethynyl-benzamide]: less than 300 nM. Next, `CCC(=O)N[C@H]1CC[C@@H](N(C)C(=O)c2ccc(-c3ccc4c(ccn4C)c3)nn2)C1` [Compound A118, 6-(1-methyl-1H-indol-5-yl)-pyridazine-3-carboxylic acid methyl-((1R,3S)-3-propionylamino-cyclopentyl)-amide]: less than 300 nM; `CN(C(=O)c1ccc(-c2nc3ccccc3o2)cc1)[C@@H]1CC[C@H](NC(=O)C2(C)CC2)C1` [Compound A3, 4-benzoxazol-2-yl-N-methyl-N-{(1R,3S)-3-[(1-methyl-cyclopropanecarbonyl)-amino]-cyclopentyl}-benzamide]: less than 300 nM. For `CCC(=O)N[C@H]1CC[C@@H](N(C)C(=O)c2ccc(-c3ccc4[nH]ncc4c3C)cc2)C1` [Compound A126, N-methyl-4-(4-methyl-1H-indazol-5-yl)-N-((1R,3S)-3-propionylamino-cyclopentyl)-benzamide], the half-inhibitory concentration (IC50) was less than 300 nM. Regarding `COCC(=O)N[C@H]1CC[C@@H](N(C)C(=O)c2ccc(-c3nc4ccccc4o3)cc2)C1` [Compound A34, 4-benzoxazol-2-yl-N-[(1R,3S)-3-(2-methoxy-acetylamino)-cyclopentyl]-N-methyl-benzamide], the concentration for half-maximal inhibition (IC50) was less than 300 nM. Next, `CCC(=O)N[C@H]1CC[C@@H](N(C)C(=O)c2ccc(-c3ccc4[nH]ncc4c3C)c(C)c2)C1` [Compound A124, 3,N-dimethyl-4-(4-methyl-1H-indazol-5-yl)-N-((1R,3S)-3-propionylamino-cyclopentyl)-benzamide]: less than 300 nM.

Regarding `CC(=O)N[C@H](C(=O)N[C@H]1CC[C@@H](N(C)C(=O)c2ccc(-c3nc4ccccc4o3)cc2)C1)C(C)C` [Compound A43, N-[(1R,3S)-3-((S)-2-acetylamino-3-methyl-butyrylamino)-cyclopentyl]-4-benzoxazol-2-yl-N-methyl-benzamide], the IC50 is 300 to 3000 nM. In the case of `CCC(=O)N[C@H]1CC[C@@H](N(C)C(=O)c2ccc(-c3ccc(C(=O)NC)cc3)cc2)C1` [Compound A78, biphenyl-4,4′-dicarboxylic acid 4′-methylamide 4-[methyl-((1R,3S)-3-propionylamino-cyclopentyl)-amide]], the IC50 is less than 300 nM. Next, `CC(=O)N[C@@H](C(=O)N[C@H]1CC[C@@H](N(C)C(=O)c2ccc(-c3nc4ccccc4o3)cc2)C1)C(C)C` [Compound A42, N-[(1R,3S)-3-((R)-2-acetylamino-3-methyl-butyrylamino)-cyclopentyl]-4-benzoxazol-2-yl-N-methyl-benzamide]: 3000 to 50000 nM; `CCC(=O)N[C@H]1CC[C@@H](N(C)C(=O)c2ccc(-c3ccc(Cl)c(F)c3)cc2)C1` [Compound A86, 4′-chloro-3′-fluoro-biphenyl-4-carboxylic acid methyl-((1R,3S)-3-propionylamino-cyclopentyl)-amide]: less than 300 nM. The same measure for `CCC(=O)N[C@H]1CC[C@@H](N(C)C(=O)c2ccc(-c3ccc(C(=O)O)c(C)c3)cc2)C1` [Compound A52, 3-methyl-4′-[methyl-((1R,3S)-3-propionylamino-cyclopentyl)-carbamoyl]-biphenyl-4-carboxylic acid]: less than 300 nM; for `CCC(=O)N[C@H]1CC[C@@H](N(C)C(=O)c2ccc(-c3ccc(C4CCC(C)CC4)cc3F)cc2)C1` (stereo partly drawn) [Compound A54, 2′-fluoro-4′-(4-methyl-cyclohexyl)-biphenyl-4-carboxylic acid methyl-((1R,3S)-3-propionylamino-cyclopentyl)-amide]: 300 to 3000 nM; for `CCC(=O)N[C@H]1CC[C@@H](N(C)C(=O)c2ccc(-c3cc(F)c4c(c3)CCN4)nc2)C1` [Compound A145, 6-(7-fluoro-2,3-dihydro-1H-indol-5-yl)-N-methyl-N-((1R,3S)-3-propionylamino-cyclopentyl)-nicotinamide]: 300 to 3000 nM. Next, `CO[C@H](C)C(=O)N[C@H]1CC[C@@H](N(C)C(=O)c2ccc(-c3nc4ccccc4o3)cc2)C1` [Compound A32, 4-benzoxazol-2-yl-N-[(1R,3S)-3-((R)-2-methoxy-propionylamino)-cyclopentyl]-N-methyl-benzamide]: 300 to 3000 nM; `CCC(=O)N[C@H]1CC[C@@H](N(C)C(=O)c2ccc(-c3ccc4[nH]ccc4c3F)cc2)C1` [Compound A116, 4-(4-fluoro-1H-indol-5-yl)-N-methyl-N-((1R,3S)-3-propionylamino-cyclopentyl)-benzamide]: less than 300 nM; `CCC(=O)N[C@H]1CC[C@@H](N(C)C(=O)c2ccc(-c3ccc(C)cc3C)cc2)C1` [Compound A90, 2′,4′-dimethyl-biphenyl-4-carboxylic acid methyl-((1R,3S)-3-propionylamino-cyclopentyl)-amide]: less than 300 nM. For the compound `CN(C(=O)c1ccc(-c2nc3ccccc3o2)cc1)[C@@H]1CC[C@H](NC(=O)C[C@@H]2CCC(=O)N2)C1` [Compound A45, 4-benzoxazol-2-yl-N-methyl-N-{(1R,3S)-3-[2-((S)-5-oxo-pyrrolidin-2-yl)-acetylamino]-cyclopentyl}-benzamide], the IC50 was in the range of 3000 to 50000 nM. The same measure for `CCC(=O)N[C@@H]1CC[C@@H](N(C)C(=O)c2ccc(-c3nc4ccccc4o3)cc2)C1` [Compound A165, 4-benzoxazol-2-yl-N-methyl-N-((1R,3R)-3-propionylamino-cyclopentyl)-benzamide]: 3000 to 50000 nM; for `CCC(=O)N[C@H]1CC[C@@H](N(C)C(=O)c2ccc(-c3ccc4[nH]ccc4c3F)nn2)C1` [Compound A137, 6-(4-fluoro-1H-indol-5-yl)-pyridazine-3-carboxylic acid methyl-((1R,3S)-3-propionylamino-cyclopentyl)-amide]: less than 300 nM. With `CCC(=O)N[C@H]1CC[C@@H](N(C)C(=O)c2ccc(-c3ccc4[nH]cc(C)c4c3)cc2)C1` [Compound A115, N-methyl-4-(3-methyl-1H-indol-5-yl)-N-((1R,3S)-3-propionylamino-cyclopentyl)-benzamide], the 50% inhibitory concentration (IC50) is less than 300 nM.
